The results in this text go back to doi:10.1101/2021.02.21.432137v1 (biorxiv, 2021).

Some targets named below: CSNK2A1 (Homo sapiens, UniProt P68400); BMPR1B (Homo sapiens, UniProt O00238); RIOK2 (Homo sapiens, UniProt Q9BVS4); JAK2 (Homo sapiens, UniProt O60674); TYK2 (Homo sapiens, UniProt P29597); LRRK2 (Homo sapiens, UniProt Q5S007).
Settings in all cases: binder
The target in another test is T1, STK3 (MST2) (Homo sapiens, UniProt Q13188).
T1 sequence (Q13188 1-491): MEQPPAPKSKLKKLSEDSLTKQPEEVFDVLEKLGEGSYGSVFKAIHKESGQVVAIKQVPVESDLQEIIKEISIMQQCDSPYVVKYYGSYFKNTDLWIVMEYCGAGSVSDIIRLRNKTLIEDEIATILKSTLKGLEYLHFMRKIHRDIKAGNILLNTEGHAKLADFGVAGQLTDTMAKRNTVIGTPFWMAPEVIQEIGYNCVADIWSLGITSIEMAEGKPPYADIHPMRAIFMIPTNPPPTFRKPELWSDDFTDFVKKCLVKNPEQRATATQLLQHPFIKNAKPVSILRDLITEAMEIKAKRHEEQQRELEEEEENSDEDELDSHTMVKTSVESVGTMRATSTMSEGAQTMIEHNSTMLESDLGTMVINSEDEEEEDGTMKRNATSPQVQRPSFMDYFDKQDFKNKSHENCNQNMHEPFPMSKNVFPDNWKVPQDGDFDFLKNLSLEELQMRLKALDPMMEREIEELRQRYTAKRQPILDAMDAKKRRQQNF

A further test has as its target T2, NUAK1 (Homo sapiens, UniProt O60285).
T2 sequence (O60285 1-661): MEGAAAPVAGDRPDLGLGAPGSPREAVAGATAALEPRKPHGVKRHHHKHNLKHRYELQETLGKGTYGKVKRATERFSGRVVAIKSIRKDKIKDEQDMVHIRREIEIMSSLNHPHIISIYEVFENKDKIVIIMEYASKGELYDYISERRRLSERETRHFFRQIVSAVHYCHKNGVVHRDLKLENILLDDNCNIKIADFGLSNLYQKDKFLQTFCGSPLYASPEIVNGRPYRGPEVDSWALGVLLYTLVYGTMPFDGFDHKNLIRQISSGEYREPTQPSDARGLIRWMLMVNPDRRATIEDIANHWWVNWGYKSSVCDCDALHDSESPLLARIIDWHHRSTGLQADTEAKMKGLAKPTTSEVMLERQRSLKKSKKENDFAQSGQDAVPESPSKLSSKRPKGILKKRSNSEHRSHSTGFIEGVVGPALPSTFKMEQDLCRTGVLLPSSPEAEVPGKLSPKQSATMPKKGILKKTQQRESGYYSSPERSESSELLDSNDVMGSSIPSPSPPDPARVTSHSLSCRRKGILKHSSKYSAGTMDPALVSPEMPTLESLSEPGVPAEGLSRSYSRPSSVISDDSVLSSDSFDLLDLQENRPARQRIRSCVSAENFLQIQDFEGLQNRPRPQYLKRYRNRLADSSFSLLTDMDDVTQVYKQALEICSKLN

Another test concerns the target T3, JAK3 (Homo sapiens, UniProt P52333).
T3 sequence (P52333 1-1124): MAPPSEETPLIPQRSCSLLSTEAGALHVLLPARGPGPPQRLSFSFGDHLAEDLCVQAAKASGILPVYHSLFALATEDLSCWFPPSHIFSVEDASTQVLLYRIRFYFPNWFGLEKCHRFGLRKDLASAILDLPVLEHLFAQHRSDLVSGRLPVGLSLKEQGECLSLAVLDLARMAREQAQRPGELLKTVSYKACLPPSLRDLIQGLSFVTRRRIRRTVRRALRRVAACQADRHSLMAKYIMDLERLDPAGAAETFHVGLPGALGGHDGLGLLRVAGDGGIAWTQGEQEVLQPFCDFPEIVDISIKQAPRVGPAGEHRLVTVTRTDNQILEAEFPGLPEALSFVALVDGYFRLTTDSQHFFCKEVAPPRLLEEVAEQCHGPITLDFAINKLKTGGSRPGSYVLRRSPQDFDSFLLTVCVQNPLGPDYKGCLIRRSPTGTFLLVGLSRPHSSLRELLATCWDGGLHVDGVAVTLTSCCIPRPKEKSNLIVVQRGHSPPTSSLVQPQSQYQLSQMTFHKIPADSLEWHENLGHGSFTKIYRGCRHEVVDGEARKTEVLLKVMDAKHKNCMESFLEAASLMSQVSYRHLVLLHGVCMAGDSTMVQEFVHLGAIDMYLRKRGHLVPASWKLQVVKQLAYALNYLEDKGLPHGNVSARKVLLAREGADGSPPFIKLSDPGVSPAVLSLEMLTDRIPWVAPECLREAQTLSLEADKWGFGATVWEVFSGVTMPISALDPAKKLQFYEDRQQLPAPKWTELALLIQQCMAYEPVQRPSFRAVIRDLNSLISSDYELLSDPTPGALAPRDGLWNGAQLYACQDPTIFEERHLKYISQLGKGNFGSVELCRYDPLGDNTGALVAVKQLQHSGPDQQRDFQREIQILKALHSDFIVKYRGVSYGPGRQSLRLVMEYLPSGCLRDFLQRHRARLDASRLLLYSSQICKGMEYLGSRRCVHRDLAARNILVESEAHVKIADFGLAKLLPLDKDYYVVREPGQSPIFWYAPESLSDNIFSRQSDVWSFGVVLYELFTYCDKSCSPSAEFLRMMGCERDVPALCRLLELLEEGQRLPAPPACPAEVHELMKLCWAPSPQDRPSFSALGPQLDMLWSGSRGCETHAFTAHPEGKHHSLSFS

JAK2, sequence (O60674 whole entry): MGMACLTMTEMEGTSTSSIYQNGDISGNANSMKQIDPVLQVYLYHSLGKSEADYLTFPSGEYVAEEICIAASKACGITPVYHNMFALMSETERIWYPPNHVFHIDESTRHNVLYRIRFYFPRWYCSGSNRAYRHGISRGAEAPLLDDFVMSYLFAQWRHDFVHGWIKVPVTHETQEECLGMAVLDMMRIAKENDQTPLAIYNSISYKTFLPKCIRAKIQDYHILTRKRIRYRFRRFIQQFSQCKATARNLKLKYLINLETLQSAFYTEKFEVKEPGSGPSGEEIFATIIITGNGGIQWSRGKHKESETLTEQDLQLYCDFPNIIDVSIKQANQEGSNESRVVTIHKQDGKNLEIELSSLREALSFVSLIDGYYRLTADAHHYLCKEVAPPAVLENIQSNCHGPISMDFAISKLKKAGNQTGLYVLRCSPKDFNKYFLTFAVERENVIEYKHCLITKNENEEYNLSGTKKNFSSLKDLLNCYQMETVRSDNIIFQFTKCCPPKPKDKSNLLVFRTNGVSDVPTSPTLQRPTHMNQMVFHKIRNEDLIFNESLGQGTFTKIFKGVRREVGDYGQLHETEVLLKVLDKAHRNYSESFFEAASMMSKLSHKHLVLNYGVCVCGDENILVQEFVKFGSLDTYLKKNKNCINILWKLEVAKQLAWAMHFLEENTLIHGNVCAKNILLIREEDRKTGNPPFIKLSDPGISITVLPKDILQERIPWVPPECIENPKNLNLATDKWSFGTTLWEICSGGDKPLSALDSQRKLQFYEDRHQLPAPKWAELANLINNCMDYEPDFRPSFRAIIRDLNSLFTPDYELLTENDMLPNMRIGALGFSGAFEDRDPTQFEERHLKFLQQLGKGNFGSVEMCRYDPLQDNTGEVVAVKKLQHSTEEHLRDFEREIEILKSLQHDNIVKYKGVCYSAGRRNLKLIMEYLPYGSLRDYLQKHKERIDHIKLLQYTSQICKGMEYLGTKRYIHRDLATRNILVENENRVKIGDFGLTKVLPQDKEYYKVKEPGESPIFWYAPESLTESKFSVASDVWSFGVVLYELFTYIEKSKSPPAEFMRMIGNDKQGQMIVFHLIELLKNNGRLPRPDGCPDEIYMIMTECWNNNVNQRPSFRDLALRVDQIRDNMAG
RIOK2, sequence (Q9BVS4 whole entry): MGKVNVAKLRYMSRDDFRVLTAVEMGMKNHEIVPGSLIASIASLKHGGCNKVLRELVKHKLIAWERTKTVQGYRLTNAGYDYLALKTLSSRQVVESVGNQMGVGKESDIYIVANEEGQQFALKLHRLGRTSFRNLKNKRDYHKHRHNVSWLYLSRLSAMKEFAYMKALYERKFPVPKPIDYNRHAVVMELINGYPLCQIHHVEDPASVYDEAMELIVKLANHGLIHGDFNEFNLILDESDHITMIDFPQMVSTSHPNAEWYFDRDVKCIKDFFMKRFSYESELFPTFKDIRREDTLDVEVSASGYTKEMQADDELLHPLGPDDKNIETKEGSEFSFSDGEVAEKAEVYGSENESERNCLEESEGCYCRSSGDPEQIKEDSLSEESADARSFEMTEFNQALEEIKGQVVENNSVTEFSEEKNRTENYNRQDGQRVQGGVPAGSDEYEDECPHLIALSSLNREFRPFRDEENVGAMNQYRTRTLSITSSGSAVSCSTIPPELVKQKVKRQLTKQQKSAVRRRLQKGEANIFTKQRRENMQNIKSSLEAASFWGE
CSNK2A1, sequence (P68400 whole entry): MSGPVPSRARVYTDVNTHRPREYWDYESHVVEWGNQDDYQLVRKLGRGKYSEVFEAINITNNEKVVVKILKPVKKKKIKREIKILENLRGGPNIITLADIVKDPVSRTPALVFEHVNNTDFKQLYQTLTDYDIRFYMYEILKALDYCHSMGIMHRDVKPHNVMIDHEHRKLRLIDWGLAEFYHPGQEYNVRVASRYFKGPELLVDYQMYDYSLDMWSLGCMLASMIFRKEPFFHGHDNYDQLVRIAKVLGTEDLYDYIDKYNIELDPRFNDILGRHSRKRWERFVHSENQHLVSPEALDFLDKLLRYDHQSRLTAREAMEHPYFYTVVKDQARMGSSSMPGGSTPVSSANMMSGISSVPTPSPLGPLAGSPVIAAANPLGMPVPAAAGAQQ
TYK2, sequence (P29597 whole entry): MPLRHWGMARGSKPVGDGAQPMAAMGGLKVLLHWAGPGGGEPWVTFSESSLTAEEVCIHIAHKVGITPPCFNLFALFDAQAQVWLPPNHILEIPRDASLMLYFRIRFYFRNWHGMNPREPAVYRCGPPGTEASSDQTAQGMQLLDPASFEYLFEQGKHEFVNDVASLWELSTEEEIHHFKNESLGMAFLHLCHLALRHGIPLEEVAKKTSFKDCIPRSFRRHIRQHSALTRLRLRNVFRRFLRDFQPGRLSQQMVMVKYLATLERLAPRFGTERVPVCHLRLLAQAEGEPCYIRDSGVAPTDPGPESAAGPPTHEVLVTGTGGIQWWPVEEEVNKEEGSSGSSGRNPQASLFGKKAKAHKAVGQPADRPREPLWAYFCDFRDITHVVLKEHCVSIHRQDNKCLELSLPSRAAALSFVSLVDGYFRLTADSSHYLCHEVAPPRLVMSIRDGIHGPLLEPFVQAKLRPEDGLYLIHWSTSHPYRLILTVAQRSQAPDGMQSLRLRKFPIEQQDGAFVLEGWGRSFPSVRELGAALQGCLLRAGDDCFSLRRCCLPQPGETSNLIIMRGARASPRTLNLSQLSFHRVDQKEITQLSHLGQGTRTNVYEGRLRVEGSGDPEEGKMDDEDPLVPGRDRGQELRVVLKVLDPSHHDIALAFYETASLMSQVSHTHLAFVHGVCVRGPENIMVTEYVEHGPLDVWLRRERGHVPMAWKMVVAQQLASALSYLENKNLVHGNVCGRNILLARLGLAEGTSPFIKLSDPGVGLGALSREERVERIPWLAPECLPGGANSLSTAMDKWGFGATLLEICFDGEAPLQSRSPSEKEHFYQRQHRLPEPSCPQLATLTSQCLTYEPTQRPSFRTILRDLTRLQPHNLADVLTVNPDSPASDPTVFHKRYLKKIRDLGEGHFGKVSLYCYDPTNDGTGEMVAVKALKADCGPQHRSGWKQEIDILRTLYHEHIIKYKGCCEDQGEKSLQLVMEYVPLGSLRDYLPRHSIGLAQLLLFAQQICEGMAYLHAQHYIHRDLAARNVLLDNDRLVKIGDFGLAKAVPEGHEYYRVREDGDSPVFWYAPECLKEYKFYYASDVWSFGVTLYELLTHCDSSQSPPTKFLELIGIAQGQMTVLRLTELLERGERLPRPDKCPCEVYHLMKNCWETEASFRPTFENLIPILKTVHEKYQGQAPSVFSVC
BMPR1B, sequence (O00238 whole entry): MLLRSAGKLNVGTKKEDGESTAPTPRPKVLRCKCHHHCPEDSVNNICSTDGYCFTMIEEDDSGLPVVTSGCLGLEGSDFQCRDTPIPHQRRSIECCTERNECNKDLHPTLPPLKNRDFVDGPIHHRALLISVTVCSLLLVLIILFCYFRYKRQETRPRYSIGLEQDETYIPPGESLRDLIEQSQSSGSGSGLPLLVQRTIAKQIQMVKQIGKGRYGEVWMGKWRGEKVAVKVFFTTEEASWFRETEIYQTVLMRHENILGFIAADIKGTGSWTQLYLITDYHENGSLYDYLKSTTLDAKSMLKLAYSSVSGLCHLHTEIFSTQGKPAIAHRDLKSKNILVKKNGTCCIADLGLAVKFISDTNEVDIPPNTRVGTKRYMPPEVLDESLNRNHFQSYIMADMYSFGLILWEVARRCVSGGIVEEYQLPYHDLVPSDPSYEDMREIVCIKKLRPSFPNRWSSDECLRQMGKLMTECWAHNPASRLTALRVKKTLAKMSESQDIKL

For the compound `C[C@H](NC(=O)c1c[nH]c2ncc(C3CC3)nc12)C(C)(C)C` [A1, UNC-BE4-017], the “Compound A1 PoC” value was 0% on STK3 (MST2); 0% at CSNK2A1; 1.8% at BMPR1B; 0% at RIOK2; 4.1% on NUAK1; 0.4% at JAK2. For the same compound, the “Compound A1 PoC” value on TYK2 stood at 6.9%; on JAK3, 0.7%; at LRRK2, 2.1%.
